“And” between values parts separate entries of the source, which are not always exact repeats. Identical values can stand only once. After the bases stand the sugars from the 5' end (letter, count) and the backbone: PS all phosphorothioate, else s phosphorothioate and o phosphodiester by linkage. Methylation of C is not given here. e = 2'-O-(2-methoxyethyl) (MOE); k = constrained ethyl (cEt); d = 2'-deoxy (DNA)
Target: SOD1
Conditions: ASO

GACTACATCCAAGGGAA (sugars e2 k2 d8 k2 e3, PS)
target mRNA inhibition (HepG2, 4 µM): 50%

AGCAGGATAACAGATGAGTT (sugars e5 d10 e5, PS)
target mRNA inhibition (HepG2, 4 µM): 70% | target mRNA inhibition (HepG2, 12 µM): 89%

CCATACAGGGTTTTTAT (sugars e3 k2 d7 k2 e3, PS)
target mRNA inhibition (HepG2, 3 µM): 1%

ACACCACAAGCCAAACGACT (sugars e5 d10 e5, PS)
target mRNA inhibition (HepG2, 5 µM): 49%

GTGATTTAAGTCTGGCA (sugars e2 k2 d8 k2 e3, PS)
target mRNA inhibition (HepG2, 5 µM): 54%

GAATGTTTATTGGGCGA (sugars e2 k2 d9 k2 e2, PS)
target mRNA inhibition (HepG2, 4 µM): 65%

CATCTTTGTCAGCAGTCACA (sugars e5 d10 e5, PS)
target mRNA inhibition (HepG2, 5 µM): 34% and 13%

GATCCCAATTACACCAC (sugars e2 k2 d9 k2 e2, PS)
target mRNA inhibition (HepG2, 4 µM): 58%

CACAGAATCTTCAATAGACA (sugars e5 d10 e5, PS)
target mRNA inhibition (HepG2, 5 µM): 10% and 14%

TTCACAGGCTTGAATGA (sugars e3 k2 d7 k2 e3, PS)
target mRNA inhibition (HepG2, 3 µM): 9%

TGTTTATTGGGCGATCC (sugars e3 k2 d7 k2 e3, PS)
target mRNA inhibition (HepG2, 3 µM): 21%

CAGCAGTCACATTGCCC (sugars e3 k2 d7 k2 e3, PS)
target mRNA inhibition (HepG2, 3 µM): 7%

TCTACAGCTAGCAGGAT (sugars e2 k2 d8 k2 e3, PS)
target mRNA inhibition (HepG2, 0.1875 µM): 23% | target mRNA inhibition (HepG2, 0.75 µM): 51% | target mRNA inhibition (HepG2, 3 µM): 74% | target mRNA inhibition (HepG2, 4 µM): 75% | target mRNA inhibition (HepG2, 12 µM): 91%

TCTGTGATTTAAGTCTGGCA (sugars e5 d10 e5, PS)
target mRNA inhibition (HepG2, 5 µM): 44%

TAACTGAGTTTTATAAAACT (sugars e5 d10 e5, PS)
target mRNA inhibition (HepG2, 5 µM): 0%

TCCAACATGCCTCTCTT (sugars e3 k2 d7 k2 e3, PS)
target mRNA inhibition (HepG2, 3 µM): 0%

TAAGTCTGGCAAAATAC (sugars e2 k2 d8 k2 e3, PS)
target mRNA inhibition (HepG2, 5 µM): 24%

GGAATGTTTATTGGGCG (sugars e3 k2 d7 k2 e3, PS)
target mRNA inhibition (HepG2, 3 µM): 15%

CTTTGGCCCACCGTGTTTTC (sugars e5 d10 e5, PS)
target mRNA inhibition (HepG2, 5 µM): 31% and 15%

TCTACAGCTAGCAGGAT (sugars e3 k2 d7 k2 e3, PS)
target mRNA inhibition (HepG2, 3 µM): 51%

AAATTGATGATGCCCTGCAC (sugars e5 d10 e5, PS)
target mRNA inhibition (HepG2, 4 µM): 14%

TTTCTACAGCTAGCAGG (sugars e2 k2 d9 k2 e2, PS)
target mRNA inhibition (HepG2, 0.1875 µM): 26% | target mRNA inhibition (HepG2, 0.75 µM): 68% | target mRNA inhibition (HepG2, 3 µM): 89% | target mRNA inhibition (HepG2, 4 µM): 84% | target mRNA inhibition (HepG2, 12 µM): 95%

ACAGTGTTTAATGTTTA (sugars e3 k2 d7 k2 e3, PS)
target mRNA inhibition (HepG2, 0.1875 µM): 35% | target mRNA inhibition (HepG2, 0.75 µM): 71% | target mRNA inhibition (HepG2, 3 µM): 56% and 79% | target mRNA inhibition (HepG2, 12 µM): 82%

CACAAGCCAAACGACTTCCA (sugars e5 d10 e5, PS)
target mRNA inhibition (HepG2, 5 µM): 47%

TCTGCTTTTTCATGGAC (sugars e3 k2 d7 k2 e3, PS)
target mRNA inhibition (HepG2, 3 µM): 55%

ACAGGGTTTTTATTCAC (sugars e2 k2 d8 k2 e3, PS)
target mRNA inhibition (HepG2, 5 µM): 29%

TAAGTGCCATACAGGGTTTT (sugars e5 d10 e5, PS)
target mRNA inhibition (HepG2, 5 µM): 13%

AGCACCCCGTCTCCGCGACT (sugars e5 d10 e5, PS)
target mRNA inhibition (HepG2, 4 µM): 24%

ATACATTTCTACAGCT (sugars kekeddddddddekek, linkages s1 o3 s8 o1 s2)
target mRNA inhibition (A431, 0.12 µM): 15% | target mRNA inhibition (A431, 0.6 µM): 14% | target mRNA inhibition (A431, 3 µM): 16% | target mRNA inhibition (A431, 15 µM): 52% | target mRNA inhibition (HepG2, 0.222 µM): 55% | target mRNA inhibition (HepG2, 0.667 µM): 73% | target mRNA inhibition (HepG2, 2 µM): 89% | target mRNA inhibition (HepG2, 6 µM): 95%

TTCATCCTTTGGCCCACCGT (sugars e5 d10 e5, PS)
target mRNA inhibition (HepG2, 3 µM): 30%

TCATTTCCACCTTTGCC (sugars e3 k2 d7 k2 e3, PS)
target mRNA inhibition (HepG2, 3 µM): 57%

AGTTTAATACCCATCTG (sugars e3 k2 d7 k2 e3, PS)
target mRNA inhibition (HepG2, 3 µM): 10%

CTGCTTTTTCATGGACC (sugars e3 k2 d7 k2 e3, PS)
target mRNA inhibition (HepG2, 3 µM): 65%

TTCCGAGGACTGCAACGGAA (sugars e5 d10 e5, PS)
target mRNA inhibition (HepG2, 4 µM): 5%

ATGTTTATTGGGCGATC (sugars e3 k2 d7 k2 e3, PS)
target mRNA inhibition (HepG2, 3 µM): 28%

TTAAGTCTGGCAAAATA (sugars e2 k2 d8 k2 e3, PS)
target mRNA inhibition (HepG2, 5 µM): 27%

CTCACTACAGGTACTTT (sugars e2 k2 d9 k2 e2, PS)
target mRNA inhibition (HepG2, 5 µM): 54%

TACTTTCTTCATTTCCA (sugars e3 k2 d7 k2 e3, PS)
target mRNA inhibition (HepG2, 3 µM): 18%

TATCAGGATACATTTCTACA (sugars e5 d10 e5, PS)
target mRNA inhibition (HepG2, 0.1875 µM): 13% | target mRNA inhibition (HepG2, 0.75 µM): 16% | target mRNA inhibition (HepG2, 3 µM): 48% | target mRNA inhibition (HepG2, 5 µM): 58% | target mRNA inhibition (HepG2, 12 µM): 81%

CCATCTGTGATTTAAGT (sugars e2 k2 d9 k2 e2, PS)
target mRNA inhibition (HepG2, 5 µM): 47%

ATCTTCCAAGTGATCAT (sugars e3 k2 d7 k2 e3, PS)
target mRNA inhibition (HepG2, 3 µM): 7%

CAGGATACATTTCTACA (sugars e2 k2 d8 k2 e3, PS)
target mRNA inhibition (HepG2, 0.1875 µM): 30% | target mRNA inhibition (HepG2, 0.75 µM): 62% | target mRNA inhibition (HepG2, 3 µM): 81% | target mRNA inhibition (HepG2, 4 µM): 79% | target mRNA inhibition (HepG2, 12 µM): 94%

CCATAACTCGCTAGGCCACG (sugars e5 d10 e5, PS)
target mRNA inhibition (HepG2, 4 µM): 22%

— the OligoGym collection
